From patent publication US9309242B2, “Substituted pyrido[2,3-b]pyrazines as FGFR kinase inhibitors” (priority 2011, dated 2016)

Columns and labels:
[1] = biological target: FGFR2 (h) (Homo sapiens, UniProt P21802); test: FGFR2 (enzymatic assay), TR-FRET; type: biochemical; conditions: enzymatic assay; read-out: FGFR 2 pIC50 (converted)
Outline: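 At low ATP (0.4 μM), enzyme activity of human FGFR2 (150 ng/ml) toward biotinylated Flt3 substrate (500 nM) was followed with test compound present. Reactions ran in 50 mM HEPES pH 7.5, 6 mM MnCl2, 1 mM DTT, 0.1 mM Na3VO4, 0.01% Triton-X-100, 1% DMSO.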

[2] = biological target: FGFR3 (h) (Homo sapiens, UniProt P22607); test: FGFR3 (enzymatic assay), TR-FRET; type: biochemical; conditions: read-out: FGFR 3 pIC50 (converted)
Chain of FGFR3 (h) (P22607 23-806): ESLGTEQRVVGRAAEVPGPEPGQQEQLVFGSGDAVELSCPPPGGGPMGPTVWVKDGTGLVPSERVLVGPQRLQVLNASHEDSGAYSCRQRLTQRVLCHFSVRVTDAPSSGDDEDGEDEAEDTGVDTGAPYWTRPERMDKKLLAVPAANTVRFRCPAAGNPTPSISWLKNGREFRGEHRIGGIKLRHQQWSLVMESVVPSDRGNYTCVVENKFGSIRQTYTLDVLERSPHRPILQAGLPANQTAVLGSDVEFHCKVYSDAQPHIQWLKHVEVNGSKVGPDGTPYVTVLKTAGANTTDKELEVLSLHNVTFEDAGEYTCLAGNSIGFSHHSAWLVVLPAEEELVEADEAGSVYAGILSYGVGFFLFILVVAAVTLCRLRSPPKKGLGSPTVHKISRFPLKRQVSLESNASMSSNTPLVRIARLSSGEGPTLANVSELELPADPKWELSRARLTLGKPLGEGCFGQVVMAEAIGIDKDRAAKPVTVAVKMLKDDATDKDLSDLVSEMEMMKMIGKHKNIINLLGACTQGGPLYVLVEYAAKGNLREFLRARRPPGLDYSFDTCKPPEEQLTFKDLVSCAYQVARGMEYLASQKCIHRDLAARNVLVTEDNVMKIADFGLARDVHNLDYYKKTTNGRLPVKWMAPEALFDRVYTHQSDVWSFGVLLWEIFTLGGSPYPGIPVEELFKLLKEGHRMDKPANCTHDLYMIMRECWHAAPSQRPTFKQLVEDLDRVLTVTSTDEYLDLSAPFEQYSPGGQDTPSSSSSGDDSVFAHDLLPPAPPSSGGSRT
From the text: Time-Resolved Fluorescence Resonance Energy Transfer (TR-FRET) signal (ex340 nm.

[3] = biological target: FGFR4 (h) (Homo sapiens, UniProt P22455); test: FGFR4 (enzymatic assay), TR-FRET; type: biochemical; conditions: FGFR 4 pIC50, enzymatic assay
Chain of FGFR4 (h) (P22455 22-802): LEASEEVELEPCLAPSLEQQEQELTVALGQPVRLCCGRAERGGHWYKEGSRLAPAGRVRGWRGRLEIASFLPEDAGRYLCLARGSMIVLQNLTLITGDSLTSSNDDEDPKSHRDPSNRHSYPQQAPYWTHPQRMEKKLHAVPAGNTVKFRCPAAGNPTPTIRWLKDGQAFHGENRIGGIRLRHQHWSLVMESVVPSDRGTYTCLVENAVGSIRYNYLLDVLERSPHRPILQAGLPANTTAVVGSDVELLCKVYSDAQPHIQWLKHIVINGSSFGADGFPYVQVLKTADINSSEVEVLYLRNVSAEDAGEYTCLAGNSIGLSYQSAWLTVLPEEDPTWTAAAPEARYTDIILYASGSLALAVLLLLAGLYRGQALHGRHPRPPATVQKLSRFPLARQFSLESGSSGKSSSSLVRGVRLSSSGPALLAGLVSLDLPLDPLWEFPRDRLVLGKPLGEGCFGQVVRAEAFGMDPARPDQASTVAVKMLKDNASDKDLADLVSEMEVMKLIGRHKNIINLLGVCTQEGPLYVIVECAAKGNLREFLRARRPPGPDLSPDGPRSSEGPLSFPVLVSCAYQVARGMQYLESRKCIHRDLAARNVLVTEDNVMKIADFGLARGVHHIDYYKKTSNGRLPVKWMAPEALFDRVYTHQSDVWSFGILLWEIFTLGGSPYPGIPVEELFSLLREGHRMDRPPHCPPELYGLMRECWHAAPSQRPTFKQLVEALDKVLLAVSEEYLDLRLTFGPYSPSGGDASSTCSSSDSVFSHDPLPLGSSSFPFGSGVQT

[4] = biological target: KDR (h) (Homo sapiens, UniProt P35968); test: KDR (VEGFR2) (enzymatic assay), TR-FRET; type: biochemical; conditions: read-out: VEGFR 2 (KDR) pIC50 (converted)
Chain of KDR (h) (P35968 20-1356): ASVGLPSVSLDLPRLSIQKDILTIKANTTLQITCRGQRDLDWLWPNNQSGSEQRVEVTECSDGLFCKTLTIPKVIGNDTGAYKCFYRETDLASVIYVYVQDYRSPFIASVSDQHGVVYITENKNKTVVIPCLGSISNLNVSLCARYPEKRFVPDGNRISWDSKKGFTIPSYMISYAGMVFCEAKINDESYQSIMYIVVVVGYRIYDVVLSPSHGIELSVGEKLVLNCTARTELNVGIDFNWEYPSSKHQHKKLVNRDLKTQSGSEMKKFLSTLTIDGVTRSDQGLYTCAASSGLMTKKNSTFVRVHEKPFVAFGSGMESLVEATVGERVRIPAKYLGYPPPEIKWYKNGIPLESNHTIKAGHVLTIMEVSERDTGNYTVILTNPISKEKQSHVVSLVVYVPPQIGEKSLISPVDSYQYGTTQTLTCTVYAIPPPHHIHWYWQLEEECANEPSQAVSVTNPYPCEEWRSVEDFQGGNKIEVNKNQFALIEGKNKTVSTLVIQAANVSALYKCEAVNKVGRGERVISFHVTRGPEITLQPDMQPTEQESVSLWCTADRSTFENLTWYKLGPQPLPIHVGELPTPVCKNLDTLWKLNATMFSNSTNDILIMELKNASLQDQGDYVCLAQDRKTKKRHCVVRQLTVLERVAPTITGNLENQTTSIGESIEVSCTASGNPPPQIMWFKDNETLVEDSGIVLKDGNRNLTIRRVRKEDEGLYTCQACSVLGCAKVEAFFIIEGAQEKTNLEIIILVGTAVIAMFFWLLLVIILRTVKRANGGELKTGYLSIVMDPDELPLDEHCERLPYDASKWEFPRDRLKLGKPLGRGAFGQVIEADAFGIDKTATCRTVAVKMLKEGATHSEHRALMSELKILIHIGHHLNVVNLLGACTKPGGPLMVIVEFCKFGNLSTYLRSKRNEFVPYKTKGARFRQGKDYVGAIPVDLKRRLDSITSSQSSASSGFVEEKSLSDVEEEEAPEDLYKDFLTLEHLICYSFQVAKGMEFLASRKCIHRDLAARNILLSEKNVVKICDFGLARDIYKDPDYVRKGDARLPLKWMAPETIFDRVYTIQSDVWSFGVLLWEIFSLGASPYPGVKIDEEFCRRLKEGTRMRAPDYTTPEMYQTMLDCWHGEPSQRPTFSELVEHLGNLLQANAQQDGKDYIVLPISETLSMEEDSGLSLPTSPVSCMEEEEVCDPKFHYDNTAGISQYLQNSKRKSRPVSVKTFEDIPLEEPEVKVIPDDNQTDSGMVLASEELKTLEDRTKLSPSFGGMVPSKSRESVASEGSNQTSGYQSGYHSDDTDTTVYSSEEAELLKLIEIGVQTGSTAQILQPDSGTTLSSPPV
Outline: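 Low-ATP (3 μM) TR-FRET kinase assay using 500 nM Btn-Flt3 peptide and 150 ng/ml enzyme, run 2 h at room temperature with 6 mM MnCl2 and 0.1 mM Na3VO4. Signal from Eu-anti-P-Tyr/SA-XL-665 is recorded in RFU.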

[5] = biological target: T1, Ba/F3-FGFR1-transfected cells (Homo sapiens, UniProt P11362); test: Ba/F3-FGFR1 (minus IL3) cellular proliferation assay, Alamar Blue; type: cell-based
T1 construct: BAF3-FGFR1 (MIN IL3) pIC50; other: minus IL3
Outline: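 Ba/F3-FGFR1 cells, 20000/well, RPMI-1640 + 10% FBS + 2 mM L-Gln; compound in DMSO; 24 h, 37 °C, 5% CO2; Alamar Blue 4 h; RFU ex 540/em 590.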

[6] = system: Ba/F3-FGFR1-transfected cells; test: Ba/F3-FGFR1 (plus IL3) cellular proliferation assay, counterscreen with 10 ng/ml murine IL3; type: cell-based; conditions: plus IL3 (10 ng/ml murine IL3, counterscreen); read-out: BAF3-FGFR1 (PLUS IL3) pIC50 (converted)
Outline: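 Proliferation read-out: resazurin-based Alamar Blue fluorescence (540/590 nm) after 4 h, following 24 h compound treatment of 20000 Ba/F3-FGFR1 cells per well in 10% FBS RPMI at 37° C. IL3 counterscreen used the same protocol plus 10 ng/ml murine IL3.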

[7] = biological target: T2, Ba/F3-FGFR3-transfected cells (Homo sapiens, UniProt P22607); test: Ba/F3-FGFR3 (minus IL3) cellular proliferation assay, Alamar Blue; type: cell-based
T2 construct: BAF3-FGFR3 (MIN IL3) pIC50; other: minus IL3
T2 sequence (P22607 whole entry, change not shown): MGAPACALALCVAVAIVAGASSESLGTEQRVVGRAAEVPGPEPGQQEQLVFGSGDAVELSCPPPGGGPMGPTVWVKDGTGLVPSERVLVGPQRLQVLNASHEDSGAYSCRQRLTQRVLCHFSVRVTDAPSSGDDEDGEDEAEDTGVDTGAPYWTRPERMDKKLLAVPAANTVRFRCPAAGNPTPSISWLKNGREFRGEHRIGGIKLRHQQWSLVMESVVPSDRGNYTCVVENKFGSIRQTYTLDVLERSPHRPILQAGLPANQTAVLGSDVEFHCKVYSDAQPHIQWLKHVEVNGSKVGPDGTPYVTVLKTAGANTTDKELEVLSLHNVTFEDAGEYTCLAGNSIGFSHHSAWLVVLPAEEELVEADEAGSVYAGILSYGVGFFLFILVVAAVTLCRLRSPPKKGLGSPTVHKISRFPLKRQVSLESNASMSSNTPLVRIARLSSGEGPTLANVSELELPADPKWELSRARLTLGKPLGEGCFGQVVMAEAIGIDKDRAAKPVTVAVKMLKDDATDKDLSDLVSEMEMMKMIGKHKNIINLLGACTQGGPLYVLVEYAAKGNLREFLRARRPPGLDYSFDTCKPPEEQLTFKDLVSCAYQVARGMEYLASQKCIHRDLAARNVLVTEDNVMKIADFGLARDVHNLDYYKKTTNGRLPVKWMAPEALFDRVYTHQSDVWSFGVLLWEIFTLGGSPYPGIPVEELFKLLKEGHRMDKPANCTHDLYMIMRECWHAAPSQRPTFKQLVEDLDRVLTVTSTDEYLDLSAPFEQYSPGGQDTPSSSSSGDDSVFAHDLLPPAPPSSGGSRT
Outline: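 FGFR3-Ba/F3, 20000 cells/well, RPMI-1640 + 10% FBS, no phenol red; cpd in DMSO; 24 h, 37° C/5% CO2. Alamar Blue 4 h, RFU ex540/em590. Counterscreen: + murine IL3 10 ng/ml.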

[8] = biological target: T3, Ba/F3-KDR-transfected cells (Homo sapiens, UniProt P35968); test: Ba/F3-KDR (minus IL3) cellular proliferation assay, Alamar Blue; type: cell-based
T3 construct: BAF3-KDR (MIN IL3) pIC50; other: minus IL3
Outline: (§1)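 Cells grown with test compound at 37° C and 5% CO2 for 24 hours were given a resazurin/ferricyanide/ferrocyanide reagent for 4 hours before fluorescence (540/590 nm) was recorded.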

[9] = system: Ba/F3-KDR-transfected cells; test: Ba/F3-KDR (plus IL3) cellular proliferation assay, counterscreen with 10 ng/ml murine IL3; type: cell-based; conditions: plus IL3 (10 ng/ml murine IL3, counterscreen); read-out: BAF3-KDR (PLUS IL3) pIC50 (converted)
Outline: as §1

Chain of FGFR2 (h) (P21802 22-821): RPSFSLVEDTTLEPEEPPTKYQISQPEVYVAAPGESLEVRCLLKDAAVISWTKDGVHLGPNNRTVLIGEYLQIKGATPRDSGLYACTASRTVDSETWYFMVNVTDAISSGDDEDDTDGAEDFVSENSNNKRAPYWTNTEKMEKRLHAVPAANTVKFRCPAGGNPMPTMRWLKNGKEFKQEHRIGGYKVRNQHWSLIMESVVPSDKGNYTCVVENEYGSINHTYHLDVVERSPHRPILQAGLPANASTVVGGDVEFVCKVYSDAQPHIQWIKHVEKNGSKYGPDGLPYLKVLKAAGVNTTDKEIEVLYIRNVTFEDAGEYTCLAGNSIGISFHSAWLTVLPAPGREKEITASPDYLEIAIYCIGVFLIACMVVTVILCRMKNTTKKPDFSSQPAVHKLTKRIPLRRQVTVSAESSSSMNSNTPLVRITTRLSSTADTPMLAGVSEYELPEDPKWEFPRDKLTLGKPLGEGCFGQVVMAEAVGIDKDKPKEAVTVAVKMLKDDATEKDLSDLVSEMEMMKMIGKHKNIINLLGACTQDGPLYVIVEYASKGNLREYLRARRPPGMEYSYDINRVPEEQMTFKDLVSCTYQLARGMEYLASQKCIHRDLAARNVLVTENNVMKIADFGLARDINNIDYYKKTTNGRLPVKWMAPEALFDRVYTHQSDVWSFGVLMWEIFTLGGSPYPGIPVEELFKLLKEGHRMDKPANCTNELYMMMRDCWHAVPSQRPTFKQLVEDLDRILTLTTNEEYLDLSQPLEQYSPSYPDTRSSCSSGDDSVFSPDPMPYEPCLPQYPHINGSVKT

SMILES | IC50 [1] [nM] | IC50 [2] [nM] | IC50 [3] [nM] | IC50 [4] [nM] | BAF3-FGFR1 (MIN IL3) pIC50 [5] | IC50 [6] [nM] | BAF3-FGFR3 (MIN IL3) pIC50 [7] | BAF3-KDR (MIN IL3) pIC50 [8] | IC50 [9] [nM]
COc1cc(OC)c(F)c(N(CC2COC2)c2ccc3ncc(-c4cnn(C)c4)nc3n2)c1 [Compound 144] | 2.82 | 1.74 | 5.25 | 22.9 | 6.44 | > 10000 | 6.33 | 5.19 | > 10000
COc1cc(OC)c(F)c(N(Cc2nccn2CCO)c2ccc3ncc(-c4cnn(C)c4)nc3n2)c1 [Compound 145] | 3.8 | 4.68 | 10.5 | 25.7 | 7.26 | > 10000 | 7.04 | 5.63 | > 10000
COc1cc(OC)cc(N(CCN2CCOCC2)c2ccc3ncc(-c4cnn(C)c4)nc3n2)c1 [Compound 146] | 4.68 | 4.9 | 17.8 | 41.7 | 6.87 | > 10000 | ~7.14 | 5.28 | > 10000
COc1cc(/N=c2\ccc3ncc(-c4cnn(C)c4)nc3n2CCN2CCOCC2)cc(OC)c1 [Compound 147] | 2.04 | 1.62 | 3.24 | 5.62 | 7.28 | > 10000 | 7.23 | 6.17 | > 10000
COc1cc(/N=c2\ccc3ncc(-c4cnn(C)c4)nc3n2CCN2CCOCC2)c(F)c(OC)c1 [Compound 148] | 1.91 | 1.26 | 1.62 | 5.01 | 7.58 | > 10000 | 7.21 | 6.26 | > 10000
COc1cc(OC)c(F)c(N(CCN2CCOCC2)c2ccc3ncc(-c4cnn(C)c4)nc3n2)c1 [Compound 149] | 3.09 | 2.63 | 5.13 | 15.5 | 7.45 | > 10000 | ~7.66 | 5.89 | > 10000
COc1cc(OC)cc(N(CCN2CCCC2=O)c2ccc3ncc(-c4cnn(C)c4)nc3n2)c1 [Compound 151] | 15.1 | 10.7 | 91.2 | 126 | 5.56 | > 10000 | 5.72 | <5 | > 10000
COc1cc(OC)cc(N(Cc2ncc[nH]2)c2ccc3ncc(-c4ccccc4)nc3n2)c1 [Compound 152] | 1.48 | 1.15 | 1.41 | 15.1 | 7.96 | > 10000 | 8.08 | 5.56 | > 10000
COc1cc(OC)c(F)c(/N=c2\ccc3ncc(-c4cnn(C)c4)nc3n2CC2CCOC2)c1F (stereo not drawn) [Compound 154] | 1.05 | 0.676 | 0.776 | 1.62 | 7.71 | > 10000 | 7.59 | 6.43 | > 10000
COc1cc(/N=c2\ccc3ncc(-c4cnn(C)c4)nc3n2Cc2cn[nH]c2)c(F)c(OC)c1 [Compound 155] | 1.2 | 0.407 | 0.324 | 2.45 | 8.13 | > 10000 | 8.07 | 6.88 | > 10000
COc1cc(/N=c2\ccc3ncc(-c4cnn(C)c4)nc3n2CCN2CCCC2=O)c(F)c(OC)c1 [Compound 156] | 2.69 | 1.91 | 6.92 | 29.5 | 7.17 | > 10000 | 7.27 | 5.52 | > 10000
COc1cc(OC)c(F)c(N(CCN2CCCC2=O)c2ccc3ncc(-c4cnn(C)c4)nc3n2)c1 [Compound 157] | 6.31 | 5.62 | 26.3 | 46.8 | 6.17 | > 10000 | ~6.66 | 5.30 | > 10000
COc1cc(/N=c2\ccc3ncc(-c4cnn(C)c4)nc3n2CC2CCC(=O)N2C)c(F)c(OC)c1 (stereo not drawn) [Compound 158] | 1.86 | 1.29 | 2.51 | 6.61 | 7.18 | > 10000 | 7.20 | 6.16 | > 10000
COc1cc(OC)c(F)c(N(CC2CCC(=O)N2C)c2ccc3ncc(-c4cnn(C)c4)nc3n2)c1 (stereo not drawn) [Compound 159] | 6.61 | 5.89 | 20.4 | 83.2 | 6.65 | > 10000 | 6.30 | 5.17 | > 10000
COc1cc(OC)c(F)c(/N=c2\ccc3ncc(-c4cnn(C)c4)nc3n2CCN(C2COC2)C2COC2)c1F [Compound 164] | 1.82 | 0.933 | 0.977 | 3.39 | 8.01 | > 10000 | 7.89 | 6.86 | > 10000
